From patent US10213433B2 (AbbVie Inc., priority 2010, dated 2019)

target: Bcl-2 protein (Homo sapiens (Human), UniProt P10415); assay: Bcl-2 binding TR-FRET (Time-Resolved Fluorescence-Resonance-Energy-Transfer) assay; details: inhibition constant for binding to Bcl-2 protein
Source text: The smaller the Ki value, the greater is the binding affinity.

Chain of Bcl-2 protein (P10415 whole entry): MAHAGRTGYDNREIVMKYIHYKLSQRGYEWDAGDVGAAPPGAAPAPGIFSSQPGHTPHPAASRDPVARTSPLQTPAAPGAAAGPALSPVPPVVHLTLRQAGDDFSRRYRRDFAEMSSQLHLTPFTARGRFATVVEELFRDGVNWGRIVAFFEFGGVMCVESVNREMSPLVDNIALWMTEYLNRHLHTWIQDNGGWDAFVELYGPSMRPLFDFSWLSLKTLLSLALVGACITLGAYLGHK

Row | Structure (SMILES) | Ki [nM]
1 | CC1(C)CCC(CN2CCN(c3ccc(C(=O)NS(=O)(=O)c4ccc(NC[C@@H]5CC[C@H](O)C5)c([N+](=O)[O-])c4)c(Oc4cnc5[nH]ccc5c4)c3)CC2)=C(c2ccc(Cl)cc2)C1 [Compound 159, 4-(4-{[2-(4-chlorophenyl)-4,4-dimethylcyclohex-1-en-1-yl]methyl}piperazin-1-yl)-N-{[4-({[(1R,3S)-3-hydroxycyclopentyl]methyl}amino)-3-nitrophenyl]sulfonyl}-2-(1H-pyrrolo[2,3-b]pyridin-5-yloxy)benzamide] | < 0.01
2 | CC1(C)CCC(CN2CCN(c3ccc(C(=O)NS(=O)(=O)c4ccc(N[C@H]5CC[C@@H](NC6CC6)CC5)c([N+](=O)[O-])c4)c(Oc4cnc5[nH]ccc5c4)c3)CC2)=C(c2ccc(Cl)cc2)C1 [Compound 122, cis-4-(4-{[2-(4-chlorophenyl)-4,4-dimethylcyclohex-1-en-1-yl]methyl}piperazin-1-yl)-N-[(4-{[4-(cyclopropylamino)cyclohexyll]amino}-3-nitrophenyl)sulfonyll]-2-(1H-pyrrolo[2,3-b]pyridin-5-yloxy)benzamide] | < 0.01
3 | CC1(C)CCC(CN2CCN(c3ccc(C(=O)NS(=O)(=O)c4ccc(OCC5(F)CCN(C6CCOC6)CC5)c([N+](=O)[O-])c4)c(Oc4cnc5[nH]ccc5c4)c3)CC2)=C(c2ccc(Cl)cc2)C1 (stereo not shown) [Compound 193, 4-(4-{[2-(4-chlorophenyl)-4,4-dimethylcyclohex-1-en-1-yl]methyl}piperazin-1-yl)-N-({4-[(4-fluoro-1-tetrahydrofuran-3-ylpiperidin-4-yl)methoxy]-3-nitrophenyl}sulfonyl)-2-(1H-pyrrolo[2,3-b]pyridin-5-yloxy)benzamide] | < 0.01
4 | CC1(C)CCC(CN2CCN(c3ccc(C(=O)NS(=O)(=O)c4ccc(N[C@H]5CCCN(C6CCOCC6)C5)c([N+](=O)[O-])c4)c(Oc4cnc5[nH]ccc5c4)c3)CC2)=C(c2ccc(Cl)cc2)C1 [Compound 105, 4-(4-{[2-(4-chlorophenyl)-4,4-dimethylcyclohex-1-en-1-yl]methyl}piperazin-1-yl)-N-[(3-nitro-4-{[(3S)-1-tetrahydro-2H-pyran-4-ylpiperidin-3-yl]amino}phenyl)sulfonyl]-2-(1H-pyrrolo[2,3-b]pyridin-5-yloxy)benzamide] | < 0.01
5 | CC1(C)CCC(CN2CCN(c3ccc(C(=O)NS(=O)(=O)c4ccc(NC[C@H]5CN(C6COC6)CCO5)c([N+](=O)[O-])c4)c(Oc4cnc5[nH]ccc5c4)c3)CC2)=C(c2ccc(Cl)cc2)C1 [Compound 361, 4-(4-{[2-(4-chlorophenyl)-4,4-dimethylcyclohex-1-en-1-yl]methyl}piperazin-1-yl)-N-{[3-nitro-4-({[(2S)-4-(oxetan-3-yl)morpholin-2-yl]methyl}amino)phenyl]sulfonyl}-2-(1H-pyrrolo[2,3-b]pyridin-5-yloxy)benzamide] | < 0.01
6 | CC1(C)CCC(CN2CCN(c3ccc(C(=O)NS(=O)(=O)c4ccc(NC5CN(C6CCOCC6)C5)c([N+](=O)[O-])c4)c(Oc4cnc5[nH]ccc5c4)c3)CC2)=C(c2ccc(Cl)cc2)C1 [Compound 116, 4-(4-{[2-(4-chlorophenyl)-4,4-dimethylcyclohex-1-en-1-yl]methyl}piperazin-1-yl)-N-({3-nitro-4-[(1-tetrahydro-2H-pyran-4-ylazetidin-3-yl)amino]phenyl}sulfonyl)-2-(1H-pyrrolo[2,3-b]pyridin-5-yloxy)benzamide] | < 0.01
7 | CC1(C)CCC(CN2CCN(c3ccc(C(=O)NS(=O)(=O)c4ccc(NC[C@@H]5CC[C@@H](O)C5)c([N+](=O)[O-])c4)c(Oc4cnc5[nH]ccc5c4)c3)CC2)=C(c2ccc(Cl)cc2)C1 [Compound 156, 4-(4-{[2-(4-chlorophenyl)-4,4-dimethylcyclohex-1-en-1-yl]methyl}piperazin-1-yl)-N-{[4-({[(1R,3R)-3-hydroxycyclopentyl]methyl}amino)-3-nitrophenyl]sulfonyl}-2-(1H-pyrrolo[2,3-b]pyridin-5-yloxy)benzamide] | < 0.01
8 | CC1(C)CCC(CN2CCN(c3ccc(C(=O)NS(=O)(=O)c4ccc(OCC5(F)CCN(C6COC6)CC5)c(C#N)c4)c(Oc4cnc5[nH]ccc5c4)c3)CC2)=C(c2ccc(Cl)cc2)C1 [Compound 357, 4-(4-{[2-(4-chlorophenyl)-4,4-dimethylcyclohex-1-en-1-yl]methyl}piperazin-1-yl)-N-[(3-cyano-4-{[4-fluoro-1-(oxetan-3-yl)piperidin-4-yl]methoxy}phenyl)sulfonyl]-2-(1H-pyrrolo[2,3-b]pyridin-5-yloxy)benzamide] | < 0.01
9 | CC1(C)CCC(CN2CCN(c3ccc(C(=O)NS(=O)(=O)c4ccc(OC[C@H]5CC[C@@](C)(O)CC5)c(Cl)c4)c(Oc4cnc5[nH]ccc5c4)c3)CC2)=C(c2ccc(Cl)cc2)C1 [Compound 362, N-({3-chloro-4-[(trans-4-hydroxy-4-methylcyclohexyl)methoxy]phenyl}sulfonyl)-4-(4-{[2-(4-chlorophenyl)-4,4-dimethylcyclohex-1-en-1-yl]methyl}piperazin-1-yl)-2-(1H-pyrrolo[2,3-b]pyridin-5-yloxy)benzamide] | 0.016
10 | CC(=O)N1CCOC(CNc2ccc(S(=O)(=O)NC(=O)c3ccc(N4CCN(CC5=C(c6ccc(Cl)cc6)CC(C)(C)CC5)CC4)cc3Oc3cnc4[nH]ccc4c3)cc2[N+](=O)[O-])C1 (stereo not shown) [Compound 136, N-[(4-{[(4-acetylmorpholin-2-yl)methyl]amino}-3-nitrophenyl)sulfonyl]-4-(4-{[2-(4-chlorophenyl)-4,4-dimethylcyclohex-1-en-1-yl]methyl}piperazin-1-yl)-2-(1H-pyrrolo[2,3-b]pyridin-5-yloxy)benzamide] | < 0.01
11 | O=C(NS(=O)(=O)c1ccc(NCC2CCOCC2)c([N+](=O)[O-])c1)c1ccc(N2CCN(CC3=C(c4ccc(Cl)cc4)CCC4(CCN(C(CF)CF)CC4)C3)CC2)cc1Oc1cnc2[nH]ccc2c1 [Compound 265, 4-(4-{[9-(4-chlorophenyl)-3-(1,3-difluoropropan-2-yl)-3-azaspiro[5.5]undec-8-en-8-yl]methyl}piperazin-1-yl)-N-({3-nitro-4-[(tetrahydro-2H-pyran-4-ylmethyl)amino]phenyl}sulfonyl)-2-(1H-pyrrolo[2,3-b]pyridin-5-yloxy)benzamide] | < 0.01
12 | COCC1CCC(CNc2ccc(S(=O)(=O)NC(=O)c3ccc(N4CCN(CC5=C(c6ccc(Cl)cc6)CC(C)(C)CC5)CC4)cc3Oc3cnc4[nH]ccc4c3)cc2[N+](=O)[O-])CC1 (stereo not shown) [Compound 374, 4-(4-{[2-(4-chlorophenyl)-4,4-dimethylcyclohex-1-en-1-yl]methyl}piperazin-1-yl)-N-{[4-({[4-(methoxymethyl)cyclohexyl]methyl}amino)-3-nitrophenyl]sulfonyl}-2-(1H-pyrrolo[2,3-b]pyridin-5-yloxy)benzamide] | < 0.001
13 | CC1(C)CCC(CN2CCN(c3ccc(C(=O)NS(=O)(=O)c4ccc(NC[C@@H]5CN(C6CC6)CCO5)c([N+](=O)[O-])c4)c(Oc4cnc5[nH]ccc5c4)c3)CC2)=C(c2ccc(Cl)cc2)C1 [Compound 326, 4-(4-{[2-(4-chlorophenyl)-4,4-dimethylcyclohex-1-en-1-yl]methyl}piperazin-1-yl)-N-{[4-({[(2R)-4-cyclopropylmorpholin-2-yl]methyl}amino)-3-nitrophenyl]sulfonyl}-2-(1H-pyrrolo[2,3-b]pyridin-5-yloxy)benzamide] | < 0.01
